These results are taken from PMC6219549, “Emergence of a cholecystokinin/sulfakinin signalling system in Lophotrochozoa” (Scientific Reports, 2018).

One assay concerns the target T1, Cragi-CCKR1 (Magallana gigas, UniProt A0A345BJM8).
T1 sequence (A0A345BJM8 1-408): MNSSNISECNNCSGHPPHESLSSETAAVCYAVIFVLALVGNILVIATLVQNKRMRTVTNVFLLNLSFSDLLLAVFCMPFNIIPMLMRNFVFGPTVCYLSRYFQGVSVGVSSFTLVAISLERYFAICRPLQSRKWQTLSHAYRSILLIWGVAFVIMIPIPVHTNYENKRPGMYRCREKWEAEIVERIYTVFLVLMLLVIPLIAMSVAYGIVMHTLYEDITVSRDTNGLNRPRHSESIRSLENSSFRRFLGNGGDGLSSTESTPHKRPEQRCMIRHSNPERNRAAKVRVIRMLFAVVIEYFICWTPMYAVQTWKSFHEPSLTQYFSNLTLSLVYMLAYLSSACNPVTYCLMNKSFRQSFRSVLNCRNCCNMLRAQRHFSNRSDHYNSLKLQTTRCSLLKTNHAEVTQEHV
Nature of the assay: Calcium fluorescence (mobilization) assay, Cragi-CCKR1 in HEK293T cells. Type of assay: cell-based, Crassostrea gigas. The settings on record: for EC50: HEK293T transiently transfected with Cragi-CCKR1, Fluo-4 calcium response, 37 °C, read-out: EC50 for receptor activation, Cragi-CCKR1. The source says:
(§1) The CDS of the Cragi-CCKR genes were amplified by PCR (Pfu DNA polymerase, Promega) using gene-specific sense primers harbouring a Kozak consensus sequence and antisense primers (Supplementary Table 3). Ten nanogram of plasmid DNA (Pal 17.3 vector, Evrogen) from a C. gigas “all developmental stages and adult central nervous system” directional and normalized cDNA library[62] was used as template. The resulting PCR products were directionally cloned into the pcDNA3.1 expression vector (Invitrogen). The correct insertion of the PCR products was confirmed by sequencing. Human Embryonic Kidney (HEK293T) cells were transiently transfected with the Cragi-CCKR/pcDNA3.1 constructs using Fugene HD (Promega) according to the manufacturer’s instructions. As a first step, co-transfection was done with a pcDNA3.1 expression construct for the human Gα16 subunit, a promiscuous G protein that can direct intracellular signalling of GPCRs to the release of calcium via the phospholipase Cβ pathway, regardless of the endogenous G protein coupling of the receptor[63]. To assess receptor activity independent of Gα16, calcium responses were measured in cells expressing only the Cragi-CCKRs. Cells for negative control experiments were transfected with empty pcDNA3.1 and Gα16/pcDNA3.1 constructs.
(§2) Activation of the Cragi-CCKRs by candidate peptide ligands was monitored using a fluorescence-based calcium mobilization assay. Briefly, transfected HEK293T cells were loaded with Fluo-4 Direct (Invitrogen) plus probenecid (qsp 2.5 mM final in the cell) (Molecular Probes) for 1 hour (45 min at 37 °C and 15 min at room temperature). Excitation of the fluorophore was done at 488 nm. The calcium response was measured for 2 min at 525 nm using a FLEXstation 3 (Molecular Devices) at 37 °C. Data were analysed using SoftMax Pro (Molecular Devices). Candidate ligands were first tested at a final concentration of 10^−5 M. Concentration-response measurements of activating ligands were conducted in quadruplicate and for at least three independent experiments. Half maximal effective concentrations (EC50 values) were calculated from concentration-response curves that were constructed using nonlinear regression analysis with a sigmoidal dose-response equation using Prism 5.0 (GraphPad software, USA).

The next assay has as its target T2, Cragi-CCKR2 (Magallana gigas, UniProt A0A345BJM9).
T2 sequence (A0A345BJM9 1-406): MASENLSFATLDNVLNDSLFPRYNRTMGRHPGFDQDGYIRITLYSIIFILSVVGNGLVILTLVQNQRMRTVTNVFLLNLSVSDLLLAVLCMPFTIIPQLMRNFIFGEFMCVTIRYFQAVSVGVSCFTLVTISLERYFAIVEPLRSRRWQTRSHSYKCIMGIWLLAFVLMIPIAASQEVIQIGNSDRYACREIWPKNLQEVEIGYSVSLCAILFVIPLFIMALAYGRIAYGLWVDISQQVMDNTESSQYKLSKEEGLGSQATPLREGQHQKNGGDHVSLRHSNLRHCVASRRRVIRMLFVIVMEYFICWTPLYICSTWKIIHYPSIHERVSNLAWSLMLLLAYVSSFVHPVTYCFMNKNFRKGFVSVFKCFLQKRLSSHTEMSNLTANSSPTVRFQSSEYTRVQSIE
Nature of the assay: Calcium fluorescence (mobilization) assay, Cragi-CCKR2 in HEK293T cells. The settings on record: for EC50: HEK293T transiently transfected with Cragi-CCKR2, Fluo-4 calcium response, 37 °C, read-out: EC50 for receptor activation, Cragi-CCKR2. Type of assay: cell-based, Crassostrea gigas.
Source text: as §1, §2

For a further assay, the system named is oyster hindgut. Nature of the assay: Myotropic bioassay on oyster hindgut. Also noted: species or system Crassostrea gigas. Conditions: for Duration, Relaxation (R) / Duration, Contraction (C) / Duration, Period (P) / Amplitude (A): mean ± SEM of four experiments, SEM; for Minimal threshold concentration inducing hindgut contraction: isolated oyster hindgut, perfused muscle chamber. How it is done:
The myotropic bioassay was performed using oyster's hindgut according to the protocol described earlier for the cuttlefish oviduct. The muscle chamber was perfused at a flow rate of 0.67 mL.min^-1. Increasing concentrations of synthetic peptides (Cragi-CCK1, [[…], [[…], [[…]) were injected in the perfusing flow using a three-way valve to avoid mechanical stress. The flow of the samples into the muscle chamber was traced by adding phenol red.

Setting [1] is: concentration-response in quadruplicate, at least three independent experiments.
[2] abbreviates: folds more potent than [Y^8S] Cragi-CCK1, calcium assay.
[3] abbreviates: times more potent than non-sulphated Cragi-CCK1, calcium assay.
Where [4] appears, read: high concentrations, HEK293T, Fig. 4.

Entries after “also recorded” stand apart in the source; their conditions may differ. Read-outs that look alike come from different tables or passages of the source. Where a SMILES comes first, the peptide text is derived from it. Where no end group is shown, it is not given here. [ ]: non-standard residue; d: D form. sY = N[C@@H](Cc1ccc(OS(=O)(=O)O)cc1)C(=O)O; pGlu = O=C1CC[C@@H](C(=O)O)N1

For orientation: EC50 means the concentration at which the effect is half-maximal. For the compound `CC(C)C[C@H](NC(=O)CNC(=O)[C@H](Cc1ccc(O)cc1)NC(=O)[C@H](CC(=O)O)NC(=O)[C@H](Cc1ccc(O)cc1)NC(=O)[C@H](CC(=O)O)NC(=O)[C@H](Cc1c[nH]c2ccccc12)NC(=O)[C@H](C)NC(=O)CNC(=O)[C@@H]1CCC(=O)N1)C(=O)NCC(=O)NCC(=O)NCC(=O)N[C@@H](CCCNC(=N)N)C(=O)N[C@@H](Cc1ccccc1)C(N)=O` [Cragi-CCK1] ([pGlu]GAWDYDYGLGGGRF-NH2), the EC50 on Cragi-CCKR1 (setting [1]) turned out to be 195 ± 20 nM; on Cragi-CCKR2 (setting [1]), 462 ± 67 nM. Also, the “Duration, Relaxation (R)” value in the assay on oyster hindgut (Peptide 10^−7M, no peptide 10,48 ± 0,78) is 16,03 ± 1,13 min. Also, the “Duration, Contraction (C)” value in the assay with oyster hindgut (Peptide 10^−7M, no peptide 20,18 ± 0,33) is listed as 35,23 ± 1,32 min. Further, the “Duration, Period (P)” value in the assay on oyster hindgut (Peptide 10^−7M, no peptide 30,67 ± 0,67) was 51,27 ± 0,15 min. Besides, the “Amplitude (A)” value in the assay on oyster hindgut (Peptide 10^−7M, no peptide 0,161 ± 0,038) is recorded as 0,203 ± 0,038 g. Also, the “Minimal threshold concentration inducing hindgut contraction” value in the assay with oyster hindgut is recorded as 10^−7 M.

With `N=C(N)NCCC[C@H](NC(=O)CNC(=O)CNC(=O)CNC(=O)[C@H](Cc1ccc(OS(=O)(=O)O)cc1)NC(=O)[C@H](CC(=O)O)NC(=O)[C@@H](N)Cc1ccccc1)C(=O)N[C@@H](Cc1c[nH]c2ccccc12)C(N)=O` [[Y^3S] Cragi-CCK2] (H-FD[sY]GGGRW-NH2), the EC50 on Cragi-CCKR2 (values given in M) is above 100000 nM.

Consider `CC(C)C[C@H](NC(=O)CNC(=O)[C@H](Cc1ccc(OS(=O)(=O)O)cc1)NC(=O)[C@H](CC(=O)O)NC(=O)[C@H](Cc1ccc(OS(=O)(=O)O)cc1)NC(=O)[C@H](CC(=O)O)NC(=O)[C@H](Cc1c[nH]c2ccccc12)NC(=O)[C@H](C)NC(=O)CNC(=O)[C@@H]1CCC(=O)N1)C(=O)NCC(=O)NCC(=O)NCC(=O)N[C@@H](CCCNC(=N)N)C(=O)N[C@@H](Cc1ccccc1)C(N)=O` [[Y^6S-Y^8S] Cragi-CCK1] ([pGlu]GAWD[sY]D[sY]GLGGGRF-NH2), for which the EC50 at Cragi-CCKR1 (setting [1]) was 1.1 ± 0.25 nM; on Cragi-CCKR2 (setting [1]) it was 1.98 ± 0.25 nM. The “Potency relative to mono-sulphated [Y^8S] Cragi-CCK1, Cragi-CCKR1” value on Cragi-CCKR1 (setting [2]) is 2 folds. Also, the “Potency relative to mono-sulphated [Y^8S] Cragi-CCK1, Cragi-CCKR2” value on Cragi-CCKR2 (setting [2]) is given as 5 folds. Further, in the assay on oyster hindgut (Peptide 10^−9M, no peptide 11,80 ± 1,63), the “Duration, Relaxation (R)” value is 23,82 ± 1,35 min. Moreover, the “Duration, Contraction (C)” value in the assay with oyster hindgut (Peptide 10^−9M, no peptide 18,76 ± 1,07) is 38,57 ± 3,53 min. Further, the “Duration, Period (P)” value with oyster hindgut (Peptide 10^−9M, no peptide 30,57 ± 2,22) is recorded as 62,39 ± 2,50 min. In the assay with oyster hindgut (Peptide 10^−9M, no peptide 0,103 ± 0,006), the “Amplitude (A)” value is 0,153 ± 0,016 g. The “Minimal threshold concentration inducing hindgut contraction” value with oyster hindgut is given as 10^−9 M.

Consider `CC(C)C[C@H](NC(=O)CNC(=O)[C@H](Cc1ccc(O)cc1)NC(=O)[C@H](CC(=O)O)NC(=O)[C@H](Cc1ccc(OS(=O)(=O)O)cc1)NC(=O)[C@H](CC(=O)O)NC(=O)[C@H](Cc1c[nH]c2ccccc12)NC(=O)[C@H](C)NC(=O)CNC(=O)[C@@H]1CCC(=O)N1)C(=O)NCC(=O)NCC(=O)NCC(=O)N[C@@H](CCCNC(=N)N)C(=O)N[C@@H](Cc1ccccc1)C(N)=O` [[Y^6S] Cragi-CCK1] ([pGlu]GAWD[sY]DYGLGGGRF-NH2), for which the 50% effective concentration (EC50) at Cragi-CCKR1 (setting [1]) is 16.4 ± 0.1 nM. Further, the “Activation of Cragi-CCKR2 (in words)” value at Cragi-CCKR2 (doses as high as 10^−5M, calcium assay in HEK293T) was “inactive; also recorded: No activation”. For the same compound, in the assay with oyster hindgut (Peptide 10^−5M, no peptide 11,35 ± 0,85), the “Duration, Relaxation (R)” value is recorded as 11,23 ± 0,60 min. In addition, the “Duration, Contraction (C)” value in the assay on oyster hindgut (Peptide 10^−5M, no peptide 20,18 ± 0,98) is on record as 21 ± 1,42 min. The “Duration, Period (P)” value with oyster hindgut (Peptide 10^−5M, no peptide 31,53 ± 1,45) is listed as 32,23 ± 1,53 min. In addition, the “Amplitude (A)” value in the assay on oyster hindgut (Peptide 10^−5M, no peptide 0,129 ± 0,019) is on record as 0,104 ± 0,021 g. In addition, the “Hindgut response (in words)” value in the assay with oyster hindgut (concentration up to 10^−5M) was “No response”.

In the case of `CC(C)C[C@H](NC(=O)CNC(=O)[C@H](Cc1ccc(OS(=O)(=O)O)cc1)NC(=O)[C@H](CC(=O)O)NC(=O)[C@H](Cc1ccc(O)cc1)NC(=O)[C@H](CC(=O)O)NC(=O)[C@H](Cc1c[nH]c2ccccc12)NC(=O)[C@H](C)NC(=O)CNC(=O)[C@@H]1CCC(=O)N1)C(=O)NCC(=O)NCC(=O)NCC(=O)N[C@@H](CCCNC(=N)N)C(=O)N[C@@H](Cc1ccccc1)C(N)=O` [[Y^8S] Cragi-CCK1] ([pGlu]GAWDYD[sY]GLGGGRF-NH2), the values for the EC50 on Cragi-CCKR1 (setting [1]) and on Cragi-CCKR2 (setting [1]) were 2.29 ± 1.55 nM and 10 ± 1.9 nM, respectively. Moreover, the “Potency relative to non-sulphated counterpart (Cragi-CCK1), Cragi-CCKR1” value at Cragi-CCKR1 (setting [3]) was found to be 90 times. Moreover, the “Potency relative to non-sulphated counterpart (Cragi-CCK1), Cragi-CCKR2” value on Cragi-CCKR2 (setting [3]) was found to be 50 times. In the assay with oyster hindgut (Peptide 10^−10M, no peptide 11,08 ± 2,27), the “Duration, Relaxation (R)” value was 17,62 ± 5,27 min. Further, in the assay on oyster hindgut (Peptide 10^−10M, no peptide 18,58 ± 1,03), the “Duration, Contraction (C)” value is 37,13 ± 3,28 min. Also, the “Duration, Period (P)” value in the assay with oyster hindgut (Peptide 10^−10M, no peptide 29,66 ± 2,22) is 54,75 ± 1,97 min. In addition, the “Amplitude (A)” value with oyster hindgut (Peptide 10^−10M, no peptide 0,121 ± 0,025) is 0,173 ± 0,023 g. Further, in the assay with oyster hindgut, the “Minimal threshold concentration inducing hindgut contraction” value is 10^−10 M.

FDYGGGRW-NH2 [Cragi-CCK2]: the EC50 on Cragi-CCKR1 (values given in M) and at Cragi-CCKR2 (values given in M) was above 100000 nM throughout.

Consider FMRF-amide [reference compound], for which the “Hindgut effect (in words)” value in the assay with oyster hindgut (concentration of 10^−7M) is recorded as “No effect”.

For “GALRF-amide [oyster GALRF-amide unrelated neuropeptide used as negative control, reference compound]”, the “Calcium response of Cragi-CCKR1 to negative control peptide” value on Cragi-CCKR1 (setting [4]) was “No response”. In addition, the “Calcium response of Cragi-CCKR2 to negative control peptide” value on Cragi-CCKR2 (setting [4]) is given as “No response”.
